In patent US10011602B2, “Immunological reagents and uses therefor” (THE UNIVERSITY OF MELBOURNE, priority 2012, dated 2018):

Tests used:
MR1 = molecular target: T1, MR1 (Homo sapiens, UniProt Q95460); experiment: Refolding of denatured MR1 and β2m with ligands; type: binding; settings: substance added to MR1/β2m refold
T1 construct: soluble human MR1 (residues 1-270 of the mature, leaderless protein); made in house
Protocol: Genes encoding soluble human MR1 (residues 1-270 of the mature, leaderless protein, lacking the transmembrane and cytoplasmic domains); or human β2m (mature, leaderless protein) were expressed for four hours in BL21 E. coli following induction with 1 mM isopropyl β-D-1-thiogalactopyranoside. E. coli were pelleted and resuspended in a buffer containing 50 mM Tris, 25% (w/v) sucrose, 1 mM EDTA, 10 mM DTT pH 8.0. Inclusion body protein was then extracted by lysis of bacteria in a buffer containing 50 mM Tris pH 8.0, 1% (w/v) Triton X-100, 1% (w/v) sodium deoxycholate, 100 mM NaCl, 10 mM DTT, 5 mM MgCl2, and 1 mg DnaseI per liter of starting culture; and subsequent steps involved homogenization with a polytron homogenizer, centrifugation, and washing inclusion body protein sequentially with firstly a buffer containing 50 mM Tris pH 8, […], 100 mM NaCl, 1 mM EDTA, 1 mM DTT, and secondly a buffer containing 50 mM Tris pH 8.0, 1 mM EDTA, 1 mM DTT. Inclusion body protein was then resuspended in a buffer containing 20 mM Tris pH 8.0, 8 M urea, 0.5 mM EDTA, 1 mM DTT, and following centrifugation the supernatant containing solubilized, denatured inclusion body protein was collected and stored at −80° C.
2 mg of 6-formyl pterin, 56 mg of denatured inclusion body MR1 protein, and 28 mg of β2m protein were added to a 400 ml refold buffer solution containing 0.1 M Tris pH 8.5, 2 mM EDTA, 0.4 M arginine, 0.5 mM oxidized glutathione, 5 mM reduced glutathione. Variably, 5M urea was either present or absent. Following an overnight incubation at 4° C., the refold buffer was dialysed against 3 changes of buffer containing 10 mM Tris, pH8.0 over a period of 24 hours. Refolded MR1-β2m-ligand complex was then purified by sequential DEAE (GE Healthcare) anion exchange, S75 16/60 (GE Healthcare) gel filtration, and MonoQ (GE Healthcare) anion exchange chromatography.

[1] = Stability of synthesised MR1 Ags; type: physicochemical
From the text: Compounds 6,7-dimethyl-8-D-ribityllumazine (1), 7-hydroxy-6-methyl-8-D-ribityllumazine (2) and a 2 electron reduced form (3) of 6-hydroxymethyl-8-D-ribityllumazine were synthesised by modifications (FIG. 64) to reported literature procedures (for review see Plaut et al 1974). Their purities were established using proton NMR spectra and reversed phase HPLC traces. In brief, D-ribitylamine (6) was produced in 55% yield from D-(−)-ribose via its oxime intermediate. Condensation with 4-chlorouracil (7) followed by nitrosation provided the key intermediate (9) in reasonable yield (27%). The diaminouracil (10) was unstable, and therefore it was generated in situ, immediately before use, by reduction of the nitroso group with sodium hydrosulfite. Condensation with the corresponding α,β-dicarbonyl reagents at the optimal pH under a nitrogen atmosphere in the dark gave the products 1 and 2 after purification by preparative HPLC. […] For dimethyl analogue 1, three equivalents of 2,3-butadione gave a much purer crude product than reported in the literature, in which 6.6 equivalents gave a significant amount of bis-adduct and made purification difficult. […] Thus prolonged reaction and work-up procedures were best avoided. In contrast, a large excess of sodium pyruvate (9-18 eq) was key for efficient production of the 7-hydroxy analogue. […]

Jurkat.LC13 line = experiment: Activation of control Jurkat.LC13 line in the presence of C1R.HLA-B8 cells; type: cell-based, human
From the text: Next, to formally establish whether 7-hydroxy-6-methyl-8-ribityl lumazine and/or its precursor, 6,7-dimethyl-8-ribityl lumazine, could activate MAIT cells, both compounds were chemically synthesized their ability to enable MR1 refolding and to activate Jurkat.MAIT cells and human MAIT cells from peripheral blood tested. […] Thus, direct precursors of riboflavin biosynthesis activate MAIT cells.

Jurkat.MAIT cells = experiment: Activation of Jurkat.MAIT cells (CD69) with C1R antigen presenting cells expressing MR1; type: cell-based, human
Protocol: Jurkat cells transduced with a MAIT TCR comprising the TRAV1-2+TRAJ33 invariant α chain, and a TRBV6-1 β chain were tested for activation by addition of Salmonella supernatant to C1R antigen presenting cells expressing MR1 for 16 hours. Jurkat.MAIT cells were subsequently stained with PE-conjugated anti-CD3, and APC-conjugated anti-CD69 antibodies before analysis by flow cytometry. Activation of Jurkat.MAIT cells was measured by an increase in surface CD69 expression. Compounds to be tested for the ability to activate Jurkat.MAIT cells were tested alongside Salmonella supernatant.
A biological assay for the activation of MAIT T cell receptor (TCR)-expressing T cell lines (into which genes encoding the MAIT TCR alpha and beta chains had been introduced), by antigen presenting cells (expressing MR1 on the cell surface) infected with the bacterium Salmonella typhimurium has been established. This assay measures the increase in expression of the cell surface activation marker, CD69, upon activation of MAIT T cells.

T1 sequence (Q95460 23-292): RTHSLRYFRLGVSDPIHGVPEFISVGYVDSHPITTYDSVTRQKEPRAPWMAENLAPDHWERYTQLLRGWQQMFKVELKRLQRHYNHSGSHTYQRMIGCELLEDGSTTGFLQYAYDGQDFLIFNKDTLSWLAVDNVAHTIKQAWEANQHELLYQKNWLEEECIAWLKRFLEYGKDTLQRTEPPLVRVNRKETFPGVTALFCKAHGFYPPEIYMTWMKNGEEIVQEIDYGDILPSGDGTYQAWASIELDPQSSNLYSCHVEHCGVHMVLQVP
T1 sequence (P61769 21-119 partner): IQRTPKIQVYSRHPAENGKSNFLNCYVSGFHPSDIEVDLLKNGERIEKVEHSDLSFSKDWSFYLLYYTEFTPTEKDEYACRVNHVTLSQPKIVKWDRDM

## Cc1nc2c(=O)[nH]c(=O)nc-2n(C[C@H](O)[C@H](O)[C@H](O)CO)c1C [Compound 1, 6,7-dimethyl-8-D-ribityllumazine]
MR1
  Ability to refold MR1 into native MR1-β2m complex: could be refolded with MR1
[1]
  Stability: unstable, particularly in solution
Jurkat.LC13 line
  Activation of control Jurkat.LC13 line: failed to activate
Jurkat.MAIT cells
  Activation of Jurkat.MAIT cells (increase in surface CD69): activated
